Source: patent US10744106B2, “Reversibly protected thiolated electrophilic fatty acids as prodrugs” (University of Pittsburgh—Of the Commonwealth System of …, priority 2016, dated 2020)

Key:
Format in all cases: cell-based, murine
heme oxygenase 1 (HO-1) = test: Nrf2-dependent HO-1 transcription in RAW264.7 cells (qPCR, Taqman); conditions: for HO-1 steady-state mRNA levels, fold vs media and vehicle controls: 8 hours (maximum)
Experimental: (§1) Murine macrophage cells (RAW264.7) were treated with the purified thiolated NO2—OA for 4 hours. RNA was extracted using the Trizol method, quantified using nanodrop technology, reversed transcribed into cDNA and then quantitative PCR was performed using Taqman assays. […] The concentration of 50 μM OA-NO2—Sx induced a similar Nrf2 activation profile for HO-1, NQO-1 and GCLM (18.0-, 6.8- and 6.3-fold, respectively) as 5 μM OA-NO2 (23.5-, 7.7-, 6.8-fold for HO-1, NQO1 and GCLM, respectively) at the 4 hour time point.
(§2) Experimental details: In every experiment, RAW264.7 cells were treated with 7.5, 15, 50 and 100 μM OA-NO2—Sx, 5 μM OA-NO2 two concentrations of methanol (MeOH) to match the lowest and highest amount of vehicle (5 and 100 μM) and a media control only. Within each experiment, there were two or three biological replicates per treatment group. After treatment, RNA was extracted using the Trizol method, quantified using nanodrop technology, reversed transcribed into cDNA and then quantitative PCR (qPCR) was performed using Taqman assays. In each qPCR experiment, there were two technical replicates per sample of RNA. The two technical replicates were then averaged for each biological replicate. The bars in the graph represent mean±standard error of the mean (SEM) of the biological replicates.
(§3) Murine macrophage cells (RAW264.7) were treated with 50 μM OA-NO2—Sx, 5 μM OA-NO2, MeOH (the highest amount of vehicle added to RAW cells to match the highest concentration, which is 50 μM for OA-NO2—Sx) and media alone for 4, 8, 16 and 24 hours. RNA was extracted at each time point using the Trizol method, quantified using nanodrop technology, reversed transcribed into cDNA and then quantitative PCR was performed using Taqman assays. […] There was a similar trend for GCLM mRNA levels (FIG. 7) remained elevated for OA-NO2—Sx (30.0-fold) compared to 1.7-fold for 5 μM OA-NO2 treatment at 16 hours.
(§4) Experimental details: Murine macrophage cells (RAW264.7) were treated with 50 μM OA-NO2—Sx, 5 μM OA-NO2, MeOH (the highest amount of vehicle added to RAW cells to match the highest concentration, which is 50 μM for OA-NO2—Sx) and media alone for 4, 8, 16 and 24 hours. RNA was extracted at each time point using the Trizol method, quantified using nanodrop technology, reversed transcribed into cDNA and then quantitative PCR for HO-1, NQO-1 and GCLM (multiplexed with actin) was performed using Taqman assays. Within each independent experiment, every treatment had at least two biological replicates at each time point. The data represents two independent experiments as mean±SEM.

[1] = test system: glutamate-cysteine ligase modifier subunit (GCLM); test: Nrf2-dependent GCLM transcription in RAW264.7 cells (qPCR, Taqman); conditions: for GCLM transcription, fold vs controls / GCLM mRNA levels, fold: RAW264.7; for GCLM mRNA levels, fold: 16 hours
Experimental: as §1, §2, §3, §4

[2] = test system: NAD(P)H dehydrogenase quinone 1 (NQO-1); test: Nrf2-dependent NQO-1 transcription in RAW264.7 cells (qPCR, Taqman); conditions: for NQO-1 transcription, fold vs controls / NQO-1 mRNA levels, fold: RAW264.7
Experimental: as §1, §2, §3, §4

[3] = 7.5, 15, 50 and 100 μM, 4 hours, compared to controls

CCCCCCCCC(SC(CCCCCCCC)C(CCCCCCCC(=O)O)[N+](=O)[O-])C(CCCCCCCC(=O)O)[N+](=O)[O-] (centres unmarked) [OA-NO2—Sx, thiolated nitro-oleic acid]
HO-1 transcription, fold vs controls (heme oxygenase 1 (HO-1); 50 μM OA-NO2—Sx, 4 hours, RAW264.7): 18.0 fold
HO-1 steady-state mRNA levels, fold vs media and vehicle controls (heme oxygenase 1 (HO-1); 50 μM, RAW264.7): 116.5 fold
HO-1 mRNA levels, fold (heme oxygenase 1 (HO-1); 50 μM, 16 hours, RAW264.7): 7.5 fold
HO-1 mRNA levels (heme oxygenase 1 (HO-1); 50 μM, 24 hours, RAW264.7): returned to basal levels
Nrf2-dependent transcription of HO-1, dose response (heme oxygenase 1 (HO-1); [3]): dose-dependent increase
GCLM transcription, fold vs controls ([1]; 50 μM OA-NO2—Sx, 4 hours): 6.3 fold
GCLM mRNA levels, fold ([1]; 50 μM): 30.0 fold
Nrf2-dependent transcription of GCLM, dose response [1, 3]: dose-dependent increase
NQO-1 transcription, fold vs controls ([2]; 50 μM OA-NO2—Sx, 4 hours): 6.8 fold
NQO-1 mRNA levels, fold ([2]; 50 μM, 16 hours): 701.1 fold
Nrf2-dependent transcription of NQO-1, dose response [2, 3]: dose-dependent increase

Nitro-oleic acid [OA-NO2, reference compound]
HO-1 transcription, fold vs controls (heme oxygenase 1 (HO-1); 5 μM OA-NO2, 4 hours, RAW264.7): 23.5 fold
HO-1 steady-state mRNA levels, fold vs media and vehicle controls (heme oxygenase 1 (HO-1); 5 μM, RAW264.7): 30.7 fold
HO-1 mRNA levels (heme oxygenase 1 (HO-1); 5 μM, 16 hours, RAW264.7): returned to baseline
HO-1 mRNA levels (heme oxygenase 1 (HO-1); 5 μM, 24 hours, RAW264.7): returned to basal levels
GCLM transcription, fold vs controls ([1]; 5 μM OA-NO2, 4 hours): 6.8 fold
GCLM mRNA levels, fold ([1]; 5 μM): 1.7 fold
NQO-1 transcription, fold vs controls ([2]; 5 μM OA-NO2, 4 hours): 7.7 fold
NQO-1 mRNA levels, fold ([2]; 5 μM, 8 hours): 115.0 fold
NQO-1 mRNA levels, fold ([2]; 5 μM, 16 hours): 98.9 fold
